{"source": "paper PMC5984089", "about": "“FBXW7 regulates DISC1 stability via the ubiquitin-proteosome system” (Molecular Psychiatry, 2017)", "key": {"HA-DISC1, HEK293 cells": {"system": "HA-DISC1, HEK293 cells", "assay": "HA-DISC1 protein level in transfected HEK293 cells", "type": "cell-based, human", "conditions": "MG132 10 μM, Figure 1c, n=3", "procedure": "HEK293 cells were sourced from ATCC (CRL-1573) and cultured as described in the manufacturer’s protocol. DMEM (SIGMA) supplemented with 10% fetal bovine serum, 2 mM L-glutamine, […] penicillin-streptomycin at 37 °C in a humidified atmosphere of 5% CO2. The cells were passaged at about 80% confluency. Cells were transfected with plasmid DNA using polyfect transfection reagent (Qiagen) according to the manufacturer’s instructions. HEK293 cells were treated with the pharmacological agents cycloheximide (C7698) and MG132 (M7449) (Sigma-Aldrich) or DISC1 disruptor peptides (custom synthesized by Severn Biotech) as described in the text.\n(§1) Briefly, detergent-soluble proteins were isolated from cells by disruption in lysis buffer 20 mM Tris-HCl (pH 7.5), 150 mM NaCl, 1 mM Na2EDTA, 1 mM EGTA, 1% triton, 2.5 mM sodium pyrophosphate, 1 mM β-glycerophosphate, 1 mM Na3VO4, 1 μg ml^–1 leupeptin, 10 mM DTT with Roche protease inhibitor, phosSTOP (Roche, 04906837001). Detergent-insoluble proteins were removed by centrifugation at 10 000 g for 10 min, and the soluble fraction was retained. Cell lysates were adjusted to equal protein amount (1 μg μl^–1) using cell lysis buffer. Cell lysates normalized for the protein concentration were incubated with mouse IgG (Millipore, 12487) Protein A agarose beads for 2 h at 4 °C. […] The complexes were analyzed on SDS PAGE. […]"}, "HA-DISC1": {"system": "HA-DISC1", "assay": "DISC1 ubiquitination in transfected HEK293 cells, immunoprecipitation", "type": "cell-based, human", "procedure": "as §1\nAntibodies used in this study are detailed in Supplementary Table 1. […] Chemiluminescent images of immune detected bands were recorded on blue-light sensitive autoradiography X-ray films, which were then developed using the Kodak X-Omat Model 2000 processor and band intensities were quantified using image J. Alternatively blots were visualized using the Licor Odyssey system and quantified using LICOR Image Studio Lite (Licor Biosciences).\nFigure 1 DISC1 turnover is regulated by the ubiquitin-proteosome system. […] HA-DISC1 levels were evaluated using densitometry (bar-chart, n=3). ‘Nt’ indicates no treatment control. […]"}}, "note": "Residues, ends and D or L forms follow the SMILES beside them. *: point of attachment. Cbz = O=C(OCc1ccccc1)*"}
{"smiles": "CC(C)C[C@@H](C=O)NC(=O)[C@H](CC(C)C)NC(=O)[C@H](CC(C)C)NC(=O)OCc1ccccc1", "note": "[MG132] (Cbz-Leu-Leu-Leu-aldehyde)", "values": [{"measurement": "HA-DISC1 protein expression after MG132", "setting": "HA-DISC1, HEK293 cells", "value": "transiently increased"}, {"measurement": "co-purification of HA-DISC1 with ubiquitin", "setting": "HA-DISC1; MG132 10 μM, 30 min exposure, Figure 1c", "value": "HA-DISC1 immunoprecipitates co-purify with ubiquitin after a 30 min exposure to MG132"}, {"measurement": "DISC1 ubiquitination with over-expressed DISC1 or ubiquitin, further effect of MG132", "setting": "HA-DISC1; MG132 10 µM, Supplementary Figure 1a", "value": "not enhanced further by MG132"}]}
